Laboratory results: the NIST ThermoML archive (doi:10.1021/je500239t)
Values joined by “and” are separate entries in the source; they are usually repeats but may differ in a detail not shown here. Equal entries are not always repeated.

Conditions: for mass density: Liquid, isochoric method; for surface tension liquid-gas: Ring tensiometer

CCCCCCCCCCCCCC[P+](CCCCCC)(CCCCCC)CCCCCC.N#C[N-]C#N [tetradecyl(trihexyl)phosphonium dicyanamide]
Conditions	mass density [kg/m3]
240.45 K, 9948.1 kPa	936.26
247.9 K, 20013 kPa	935.78
248.45 K, 1061.1 kPa	928.34
255.19 K, 9753 kPa	927.91
255.47 K, 29932 kPa	935.43
255.48 K, 30358 kPa	935.75
262.34 K, 100 kPa	919.18
263.19 K, 40368 kPa	935.25
263.31 K, 20048 kPa	927.4
265.01 K, 1331.4 kPa	918.74
268.5 K, 100 kPa	915.58
271.01 K, 49601 kPa	934.43
271.54 K, 9121.6 kPa	918.33
271.95 K, 29894 kPa	926.34
273.37 K, 100 kPa	912.9
278.2 K, 100 kPa	910.1
279.99 K, 39498 kPa	925.84
280.34 K, 20094 kPa	917.77
281.41 K, 1813.9 kPa	908.67
283.3 K, 100 kPa	907.06
288.09 K, 48847 kPa	925.34
288.37 K, 100 kPa	904.29
289.04 K, 30059 kPa	917.24
289.74 K, 10390 kPa	908.18
293.14 K, 100 kPa	901.37
297.73 K, 39781 kPa	916.7
298.14 K, 20028 kPa	907.66
298.15 K, 119.7 kPa	898.63
298.21 K, 100 kPa	898.81
298.4 K, 1119.7 kPa	898.73
303.08 K, 100 kPa	895.87
306.53 K, 28505 kPa	907.16
307.06 K, 9995.2 kPa	898.22
307.27 K, 49935 kPa	916.12
308.18 K, 100 kPa	892.91
313.09 K, 100 kPa	890.2
316.64 K, 19643 kPa	897.65
316.65 K, 39471 kPa	906.55
318.03 K, 100 kPa	887.53
318.37 K, 1160.7 kPa	887.84
323.32 K, 100 kPa	884.69
327.54 K, 49978 kPa	905.9
327.66 K, 10032 kPa	887.3
327.67 K, 30114 kPa	897.01
328.16 K, 100 kPa	881.94
332.96 K, 100 kPa	879.42
338.03 K, 100 kPa	876.79
338.23 K, 19830 kPa	886.69
338.63 K, 41032 kPa	896.36
339.22 K, 1500.6 kPa	876.45
342.86 K, 100 kPa	873.89
348.12 K, 100 kPa	871.1
348.37 K, 49973 kPa	895.79
349.27 K, 10043 kPa	875.89
349.28 K, 29863 kPa	886.05
353.28 K, 100 kPa	868.29
358 K, 100 kPa	865.81
364.53 K, 100 kPa	862.18

Conditions	surface tension liquid-gas
283.57 K	32.46 mN/m
283.61 K	32.69 mN/m
288.08 K	32.54 mN/m
288.09 K	31.93 mN/m
293.35 K	31.85 mN/m
293.41 K	32.02 mN/m
298.2 K	31.68 mN/m
298.24 K	31.82 mN/m
303.15 K	30.98 mN/m
303.2 K	31.32 mN/m
308.16 K	30.28 mN/m
308.17 K	30.84 mN/m
313.21 K	29.67 mN/m
313.25 K	30.4 mN/m
318.29 K	29.57 mN/m
318.3 K	30.08 mN/m
323.33 K	29.65 mN/m
323.39 K	29.41 mN/m
328.05 K	28.72 mN/m
328.09 K	29.18 mN/m
333.58 K	28.62 mN/m and 28.77 mN/m
338.55 K	28.21 mN/m
338.57 K	28.35 mN/m
343.55 K	27.83 mN/m
343.57 K	27.93 mN/m
348.56 K	27.59 mN/m
348.64 K	27.56 mN/m
353.46 K	26.45 mN/m
353.49 K	27.11 mN/m
358.44 K	26.17 mN/m
358.57 K	26.7 mN/m
365.15 K	25.74 mN/m
365.21 K	26.14 mN/m
